Measurements reported in patent publication US11806342B2, “Diiodohydroxyquinoline for the treatment of clostridium difficile infection” (Purdue Research Foundation, priority 2019, dated 2023).
Converted amounts (≈) assume the structure as drawn.

Legend:
Assay type in all cases: cell-based, Clostridium difficile
C. difficile NR-49288 = experiment: MIC and MBC, broth microdilution; conditions: Clostridioides difficile, NR49288
Description: (§1) Antibacterial activity of Diiodohydroxyquinoline against a wide panel of Clostridium difficile strains. […] MIC50 and MIC90 are the minimum concentration of each agent that inhibited growth of 50% and 90% of the tested isolates, respectively. The minimum bactericidal concentration (MBC) of these drugs was tested by plating 5 μL from wells with no growth onto BHIS agar plates. The MBC was categorized as the lowest concentration that reduced bacterial growth by 99.9% MIC50 and MIC90 are the minimum concentration of each agent that inhibited the growth of 50% and 90% of the tested isolates, respectively. The minimum bactericidal concentration (MBC) of these drugs was tested by plating 5 μL from wells with no growth onto BHIS agar plates. The MBC was categorized as the lowest concentration that reduced bacterial growth by 99.9% [29-31].

C. difficile HM-745 = experiment: MIC and MBC, broth microdilution; conditions: Clostridioides difficile, HM745
Description: as §1

C. difficile I6 = experiment: MIC and MBC, broth microdilution; conditions: Clostridioides difficile, I6
Description: as §1

C. difficile P15 = experiment: MIC and MBC, broth microdilution; conditions: Clostridioides difficile, P15
Description: as §1

C. difficile I9 [1] = experiment: MIC and MBC, broth microdilution; conditions: Clostridioides difficile, I9
Description: as §1

C. difficile P19 = experiment: MIC and MBC, broth microdilution; conditions: Clostridioides difficile, P19
Description: as §1

C. difficile NR-49278 = experiment: MIC and MBC, broth microdilution; conditions: Clostridioides difficile, NR49278
Description: as §1

C. difficile P6 = experiment: MIC and MBC, broth microdilution; conditions: Clostridioides difficile, P6
Description: as §1

C. difficile I13 = experiment: MIC and MBC, broth microdilution; conditions: Clostridioides difficile, I13
Description: as §1

C. difficile NR-49285 = experiment: MIC and MBC, broth microdilution; conditions: Clostridioides difficile, NR49285
Description: as §1

C. difficile I10 = experiment: MIC and MBC, broth microdilution; conditions: Clostridioides difficile, I10
Description: as §1

C. difficile P20 = experiment: MIC and MBC, broth microdilution; conditions: Clostridioides difficile, P20
Description: as §1

C. difficile I11 = experiment: MIC and MBC, broth microdilution; conditions: Clostridioides difficile, I11
Description: as §1

C. difficile P3 = experiment: MIC and MBC, broth microdilution; conditions: Clostridioides difficile, P3
Description: as §1

C. difficile P30 = experiment: MIC and MBC, broth microdilution; conditions: Clostridioides difficile, P30
Description: as §1

C. difficile ATCC 1801 = experiment: MIC and MBC, broth microdilution; conditions: Clostridioides difficile, ATCC1801
Description: as §1

C. difficile P5 = experiment: MIC and MBC, broth microdilution; conditions: Clostridioides difficile, P5
Description: as §1

C. difficile ATCC 43255 [2] = experiment: MIC and MBC, broth microdilution; conditions: Clostridioides difficile, ATCC43255
Description: as §1

C. difficile ATCC 43255 [3] = experiment: Initial screening of antiparasitic drugs, broth microdilution MIC; conditions: Clostridioides difficile, ATCC43255
Description: C. difficile strains were grown anaerobically on brain heart infusion supplemented (BHIS) agar plates at 37° C. for 48 hours. Afterwards, a bacterial solution equivalent to 0.5 McFarland standard was prepared and diluted in (BHIS) broth to achieve a bacterial concentration of about 5×10^5 CFU/mL. Drugs were added and serially diluted along the plates. Plates were then, incubated anaerobically at 37° C. for 48 hours. MICs reported in Table (1) are the minimum concentrations of the drugs that could completely suppress the visual growth of bacteria.

[4] = test system: C. difficile ATCC BAA-1870; experiment: Time kill kinetics assay; conditions: C. difficile ATCC BAA-1870, 5×MIC, 24 hours
Description: (§2) Time kill kinetics assay. In order to examine the killing kinetics of DIHQ, a time kill kinetics assay was performed against Clostridium difficile ATCC BAA 1870 and C. difficile NR-49277 as described previously. […] Aliquots were collected from each treatment after 0, 4, 6, 8, 12, and 24 hours of incubation at 37° C. and subsequently serially diluted and plated for viable CFU/mL determination.

C. difficile NR-49277 = experiment: Time kill kinetics assay; conditions: C. difficile NR-49277, 5×MIC, 24 hours
Description: as §2

[5] = test system: C. difficile ATCC BAA-1870; experiment: Checkerboard assay, DIHQ with metronidazole or vancomycin
Description: (§3) The fractional inhibitory concentration index (ΣFIC) was calculated for each interaction. Interactions where the ΣFIC index was ≤0.5 were categorized as synergistic (SYN).

C. difficile I9 [6] = experiment: as above
Description: as §3

C. difficile ATCC 43255 [7] = experiment: as above
Description: as §3

`CN[C@H](CC(C)C)C(=O)N[C@H]1C(=O)N[C@@H](CC(N)=O)C(=O)N[C@H]2C(=O)N[C@H]3C(=O)N[C@H](C(=O)N[C@H](C(=O)O)c4cc(O)cc(O)c4-c4cc3ccc4O)[C@H](O)c3ccc(c(Cl)c3)Oc3cc2cc(c3O[C@@H]2O[C@H](CO)[C@@H](O)[C@H](O)[C@H]2O[C@H]2C[C@](C)(N)[C@H](O)[C@H](C)O2)Oc2ccc(cc2Cl)[C@H]1O` [Vancomycin, vancomycin] showed an MBC (C. difficile NR-49288) of 1 µg/mL (≈ 0.69 µM), an MIC (C. difficile NR-49288) of 0.5 µg/mL (≈ 0.345 µM) and an MBC (C. difficile HM-745) of 1 µg/mL (≈ 0.69 µM). For the same molecule, the MIC (C. difficile HM-745) was 1 µg/mL (≈ 0.69 µM), the MBC (C. difficile I6) was 0.5 µg/mL (≈ 0.345 µM) and the MIC (C. difficile I6) was 0.5 µg/mL (≈ 0.345 µM). It also gave an MBC (C. difficile P15) of 1 µg/mL (≈ 0.69 µM), an MIC (C. difficile P15) of 1 µg/mL (≈ 0.69 µM) and an MBC (C. difficile I9 [1]) of 0.5 µg/mL (≈ 0.345 µM). For the same molecule, the MIC (C. difficile I9 [1]) was 0.5 µg/mL (≈ 0.345 µM), the MBC (C. difficile P19) was 1 µg/mL (≈ 0.69 µM) and the MIC (C. difficile P19) was 1 µg/mL (≈ 0.69 µM). It also gave an MBC (C. difficile NR-49278) of 0.5 µg/mL (≈ 0.345 µM), an MIC (C. difficile NR-49278) of 0.25 µg/mL (≈ 0.173 µM) and an MBC (C. difficile P6) of 1 µg/mL (≈ 0.69 µM). It also gave an MIC (C. difficile P6) of 1 µg/mL (≈ 0.69 µM), an MBC (C. difficile I13) of 1 µg/mL (≈ 0.69 µM) and an MIC (C. difficile I13) of 1 µg/mL (≈ 0.69 µM). For the same molecule, the MBC (C. difficile NR-49285) was 0.5 µg/mL (≈ 0.345 µM), the MIC (C. difficile NR-49285) was 0.5 µg/mL (≈ 0.345 µM) and the MBC (C. difficile I10) was 1 µg/mL (≈ 0.69 µM). For the same molecule, the MIC (C. difficile I10) was 0.5 µg/mL (≈ 0.345 µM), the MBC (C. difficile P20) was 1 µg/mL (≈ 0.69 µM) and the MIC (C. difficile P20) was 1 µg/mL (≈ 0.69 µM). It also gave an MBC (C. difficile I11) of 1 µg/mL (≈ 0.69 µM), an MIC (C. difficile I11) of 1 µg/mL (≈ 0.69 µM) and an MBC (C. difficile P3) of 1 µg/mL (≈ 0.69 µM). For the same molecule, the MIC (C. difficile P3) was 1 µg/mL (≈ 0.69 µM), the MBC (C. difficile P30) was 0.5 µg/mL (≈ 0.345 µM) and the MIC (C. difficile P30) was 0.5 µg/mL (≈ 0.345 µM). It also gave an MBC (C. difficile ATCC 1801) of 1 µg/mL (≈ 0.69 µM), an MIC (C. difficile ATCC 1801) of 1 µg/mL (≈ 0.69 µM) and an MBC (C. difficile P5) of 0.5 µg/mL (≈ 0.345 µM). The MIC (C. difficile P5) was 0.5 µg/mL (≈ 0.345 µM), the MBC (C. difficile ATCC 43255 [2]) was 1 µg/mL (≈ 0.69 µM) and the MIC (C. difficile ATCC 43255 [2]) was 1 µg/mL (≈ 0.69 µM). For the same molecule, the MIC (C. difficile ATCC 43255 [3]) was 1 µg/mL (≈ 0.69 µM), the “reduction of bacterial burden within 24 hours” value [4] was 1.7 log10 CFU/mL and the “reduction of bacterial burden within 24 hours” value (C. difficile NR-49277) was 1.22 log10 CFU/mL. The “MIC of vancomycin combined with DIHQ” value ([5]; C. difficile ATCC BAA-1870) was 0.125 µg/mL, the MIC ([5]; Clostridioides difficile, ATCCBAA1870, read-out: MIC alone) was 1 µg/mL and the “MIC of vancomycin combined with DIHQ” value (C. difficile I9 [6]; C. difficile I9) was 0.125 µg/mL. For the same molecule, the MIC (C. difficile I9 [6]; Clostridioides difficile, I9, read-out: MIC alone) was 1 µg/mL, the “MIC of vancomycin combined with DIHQ” value (C. difficile ATCC 43255 [7]; C. difficile ATCC 43255) was 0.125 µg/mL and the MIC (C. difficile ATCC 43255 [7]; Clostridioides difficile, ATCC43255, read-out: MIC alone) was 1 µg/mL.
